Measurements published in US20220396840A1, “IRON-SCORE AND IN VITRO METHOD FOR IDENTIFYING MANTLE CELL LYMPHOMA (MCL) SUBJECTS AND THERAPEUTIC USES AND METHODS” (priority 2019, published 2022).
Where two headings read alike, the source gives them in different places.

Columns and labels:
GRANTA-519 = assay: Cell viability assay (CellTiter-Glo, ATP quantification); type: cell-based; details: Homo sapiens
Description: (§1) The 6 MCL cell lines (GRANTA-519, JEKO-1, MINO, MAVER-1, JVM-2 and REC-1) were purchased from the DSMZ (Leibniz-Institut DSMZ—Deutsche Sammlung von Mikroorganismen und Zellkulturen GmbH, Germany). They were maintained according to the supplier's recommendations. Cultures were maintained at 37° C. in a humidified atmosphere with 5% CO2.
(§2) MCL cell lines were cultured for 4 days in 96-well flat-bottom microtiter plates in RPMI 1640 medium or DMEM medium, 10% or 20% FCS (control medium) in the presence of various compounds. The number of viable cells in culture was determined using the CellTiter-Glo Luminescent Cell Viability Assay from Promega, Madison, Wis., USA using a Centro LB 960 luminometer (Berthold Technologies, Bad Wildbad, Germany).
(§3) This test is based on quantitation of the intracellular ATP present, which signals the presence of metabolically active cells. Data are expressed as the mean percentage of six replicates, normalized to the untreated control.
(§4) We investigated the therapeutic interest of iron metabolism inhibitors AM5 (Ironomycin) and AM23. The panel of 6 MCL cell lines were incubated with increasing concentrations of Ironomycin (FIG. 2 A), AM23 (FIG. 2 B) or vehicle for 96H (A). Inhibitory concentration 50% (IC50) was calculated with concentration-response curve after treatment with Ironomycin. Cell viability was examined using quantification of ATP assay. Data are expressed as mean percentage+/−SEM of at least three independent experiments performed in sixplicate. Tables 6 and 7 presenting the inhibitory concentration 50% (IC50) of Ironomycin and AM23 for the 6 MCL cell-lines.

JEKO-1 = assay: as above; type: cell-based; details: Homo sapiens
Description: as §1, §2, §3, §4

JVM-2 = assay: as above; type: cell-based; details: Homo sapiens
Description: as §1, §2, §3, §4

MAVER-1 = assay: as above; type: cell-based; details: Homo sapiens
Description: as §1, §2, §3, §4

MINO = assay: as above; type: cell-based; details: Homo sapiens
Description: as §1, §2, §3, §4

REC-1 = assay: as above; type: cell-based; details: Homo sapiens
Description: as §1, §2, §3, §4

primary MCL cells = assay: Primary MCL cells of patients cultured with CD40L, flow cytometry; type: cell-based, human
Description: (§5) In a first experiment, primary MCL cells were treated with Ironomycin and incubated during 96H with CD40L. The toxicity on MCL cells (A) and non-MCL cells (B) was analyzed by flow cytometry and expressed in % of control. N=5, Median+/−IQR, t-test of pairs. * P<0.05, ** P<0.01, *** P<0.001, **** P<0.0001.
These first results were further completed by additional experiments: primary MCL cell were treated with Ironomycin (C) or AM-23 (D) and incubated during 96H with recombinant CD40L.
Results represent the median±IQR of each population cells of nine (C) and six patients (D), respectively. Statistical significance was tested using t-test of pairs: * P<0.05, ** P<0.01 *** P<0.001, **** P<0.0001 and NS: non-significant.
(§6) Cells are obtained from lymph nodes or blood of 9 patients with MCL.
(§7) In a first experiment, primary MCL cells were treated with Ironomycin and incubated during 96H with CD40L. The toxicity on MCL cells (FIG. 7 A) and non-MCL cells (FIG. 7 B) was analyzed by flow cytometry and expressed in % of control.
The toxicity on MCL cells was analyzed by flow cytometry and expressed in % of control.

[1] = test system: Jeko-1 and JVM-2 MCL cell lines; details: deferasirox 80 μM, Ironomycin 50 nM and 500 nM, 72H
Description: Jeko-1 and JVM2 cell line was pre-incubated with or without 80 μM of deferasirox or 50 nM and 500 nM of Ironomycin, respectively, for 4 hours followed by 72H incubation in presence or absence of FeCl3 (100 μM). Apoptosis was assessed using Annexin V-PE staining by flow cytometry.
AnnexinV-PE staining for apoptosis analysis was performed using the “PE Annexin V Apoptosis Detection Kit I” (559763, Becton Dickinson).
The inventors further investigated the effect of Iron supplementation on the cell death induced by these treatments. Iron chelator (Deferasirox) concentrations were chosen according the maximal plasmatic concentration achievable in the patient (Nisbet-Brown et al., 2003).

[2] = test system: Jeko-1 and JVM-2 cell lines; assay: Cell cycle analysis by flow cytometry (BrdU/DAPI); type: cell-based, human; details: IC50 Ironomycin for 24 hours
Description: Cells were incubated with vehicle or with IC50 Ironomycin for 24 hours.
The cell cycle progression was studied by flow cytometry using the Apoptosis, DNA Damage, and Cell Proliferation Kit (562253, Becton Dickinson). Briefly, cells were labeled with bromodeoxyuridine (BrdU), an analog of the DNA precursor thymidine that can be incorporated into newly synthesized DNA and detected with an antibody against BrdU to measure cell proliferation. After this labeling, the cells were fixed, permeabilized and treated with DNase to expose the BrdU epitopes. Following this treatment, cells were simultaneously stained with fluorochrome-labeled anti-BrdU, anti-cleaved Poly ADP-ribose polymerase 1 (PARP), anti-H2AX phosphorylated at serine 139. They were also stained with DAPI to determine DNA content. Finally, cells were resuspended in staining buffer and analyzed by flow cytometry (Fortessa, Becton Dickinson).
Cells were incubated with vehicle or with IC50 Ironomycin for 24 hours. […] (FIG. 4)

Phospho-H2A.X (S139) = assay: Western blot of Phospho-H2A.X (S139), DNA damage response; type: cell-based, human; details: 100 nM for Jeko-1 and 500 nM for JVM-2, 24H
Description: Cells were treated with Ironomycin (100 nM for Jeko-1 and 500 nM for JVM-2) during 24H. Protein levels of Phospho-H2A.X (S139) were analyzed by western blot and normalized by β-actin protein level.
(§8) The total cell lysates were obtained with RIPA 1× lysis buffer (#9806, Cell Signaling®) according with the supplier recommendations.
Protein lysates migrate on 10% polyacrylamide gel (NP-0301, Novex, Life Technologies®), in MOPS 1× running buffer (NP0001, Novex, Life Technologies®) or MES 1× running buffer NP-0002, Novex, Life Technologies®) and proteins are transferred to nitrocellulose membrane (1B301001, I-Blot Transfert Starck, NuPAGE, Life Technologies®). The primary antibodies mouse-anti-phospho-Histone H2A.X (Ser139) clone JBW301 (1/1000, Merck Millipore), rabbit anti-cyclinD1 (#2926, 1/1000, Cell Signaling®), rabbit anti-phospho (S795)-Rb (#9301, 1/1000, Cell Signaling®), mouse anti-Rb (#9309, 1/1000, Cell Signaling®), mouse anti-CDK4 (#2906, 1/1000, Cell Signaling®) were incubated in TBS-Tween 20 0.1% (Tris-Buffered Saline, pH 7.4) with 5% non-fat milk or Bovine serum albumin (Sigma-Aldrich, A7906). […] Quantification of protein levels was performed with Image J® software (National Institutes of Health, Bethesda, Md., USA).
Protein levels of Phospho-H2A.X (S139) were analyzed by western blot and normalized by β-actin protein level (FIG. 5).

[3] = test system: Cyclin D1, phospho-Rb, CDK4 in Jeko-1 and JVM2 cells; assay: Western blot of cyclinD1, phospho-Rb, Rb and CDK4; type: cell-based, human; details: 100 nM Jeko-1, 500 nM JVM2, 24H
Description: Jeko-1 and JVM2 cells were treated with Ironomycin (100 nM and 500 nM, respectively) during 24H. Protein levels of cyclinD1, phospho-Rb, Rb and CDK4 were analyzed by western blot and normalized by the β-actin expression level. This Cyclin D1 downregulation is associated with a downregulation of Rb phosphorylation and CDK4 protein levels.
as §8
Protein lysates migrate on 10% polyacrylamide gel (NP-0301, Novex, Life Technologies®), in MOPS 1× running buffer (NP0001, Novex, Life Technologies®) or MES 1× running buffer NP-0002, Novex, Life Technologies®) and proteins are transferred to nitrocellulose membrane (1B301001, I-Blot Transfert Starck, NuPAGE, Life Technologies®). The primary antibodies mouse-anti-phospho-Histone H2A.X (Ser139) clone JBW301 (1/1000, Merck Millipore), rabbit anti-cyclinD1 (#2926, 1/1000, Cell Signaling®), rabbit anti-phospho (S795)-Rb (#9301, 1/1000, Cell Signaling®), mouse anti-Rb (#9309, 1/1000, Cell Signaling®), mouse anti-CDK4 (#2906, 1/1000, Cell Signaling®) were incubated in TBS-Tween 20 0.1% (Tris-Buffered Saline, pH 7.4) with 5% non-fat milk or Bovine serum albumin (Sigma-Aldrich, A7906). Protein levels are objectified by labeling with an anti-β-actin mouse monoclonal antibody (Sigma, A5441, St Louis, Mo., USA 1/1000). Primary antibodies are visualized with secondary anti-rabbit antibodies (Sigma®, A9169) or anti-mouse antibodies (Jackson, 115-036-068) coupled to peroxidase allows the development by chemiluminescence by Western Lightning ECL (NEL121001EA, Perkin Elmer®). Quantification of protein levels was performed with Image J® software (National Institutes of Health, Bethesda, Md., USA).
Mantle cell lymphoma (MCL) is now recognized as an aggressive B-cell lymphoma with various growth patterns (mantle zone, nodular, or diffuse) and a broad range of cytologic features. […]

[4] = test system: non-MCL cells (normal cells from the microenvironment); type: cell-based, human
Description: as §5, §6, §7

Jeko-1 and JVM-2 cells = assay: Drug combination concentration matrix, cell viability by ATP quantification, Bliss synergy matrix; type: cell-based, human; details: 96 h
Description: Jeko-1 and JVM-2 cells were treated with increasing concentrations of ironomycin combined with ibrutinib (BTK inhibitor) for 96 h and cell viability was tested by ATP quantification to obtain the viability matrix. The synergy matrix was calculated as described in Material and Methods.
Jeko-1 and JVM-2 cells were treated with increasing concentrations of ironomycin combined with Venetoclax (BCL2 inhibitor) for 96 h and cell viability was tested by ATP quantification to obtain the viability matrix. The synergy matrix was calculated as described in Material and Methods.
Jeko-1 and JVM-2 cells were treated with increasing concentrations of ironomycin combined with doxorubicin for 96 h and cell viability was tested by ATP quantification to obtain the viability matrix. The synergy matrix was calculated as described in Material and Methods.
The interaction between the drugs tested in vitro was investigated with a concentration matrix test, in which increasing concentration of each single drug were assessed with all possible combinations of the other drugs. For each combination, the percentage of expected growing cells in the case of effect independence was calculated according to the Bliss equation (Combes et al., 2019): […]
where fuC is the expected fraction of cells unaffected by the drug combination in the case of effect independence, and fuA and fuB are the fractions of cells unaffected by treatment A and B, respectively. The difference between the fraction of living cells in the cytotoxicity test and the fuC value was considered as an estimation of the interaction effect, with positive values indicating synergism and negative values antagonism.
Synergy matrix was built with the R package “SynergyFinder”.

[5] = test system: hematopoietic progenitors
[6] = Homo sapiens, 96 h, read-out: reduction of the median number of viable primary MCL cells

## CC[C@@H](C(=O)[C@@H](C)[C@@H](O)[C@H](C)[C@@H]1O[C@@H]([C@@H](CC)C(=O)O)CC[C@@H]1C)[C@H]1O[C@]2(C=C[C@@H](NC3CC3)[C@]3(CC[C@@](C)([C@H]4CC[C@](O)(CC)[C@H](C)O4)O3)O2)[C@H](C)C[C@@H]1C [AM-23]
GRANTA-519; Granta-519, 96 h
  IC50: 845 nM
JEKO-1; JeKo-1, 96 h
  IC50: 8 nM
JVM-2; JVM-2, 96 h
  IC50: 58 nM
MAVER-1; Maver1, 96 h
  IC50: 17.3 nM
MINO; 96 h
  IC50: 43 nM
REC-1; Rec1, 96 h
  IC50: 6.8 nM
Primary MCL cells; [6]
  cytotoxicity at 0.01 µM: 34%
  cytotoxicity at 0.02 µM: 58%
  cytotoxicity at 0.05 µM: 60%
  cytotoxicity at 0.1 µM: 64%

## C#CCN[C@@H]1C=C[C@]2(O[C@H]([C@@H](CC)C(=O)[C@@H](C)[C@@H](O)[C@H](C)[C@@H]3O[C@@H]([C@@H](CC)C(=O)O)CC[C@@H]3C)[C@@H](C)C[C@H]2C)O[C@@]12CC[C@@](C)([C@H]1CC[C@](O)(CC)[C@H](C)O1)O2 [Ironomycin]
GRANTA-519; GRANTA-519, 96H incubation, cell viability by ATP, read-out: IC50
  IC50: 802 nM
JEKO-1; JEKO-1, 96H incubation, cell viability by ATP, read-out: IC50
  IC50: 12.8 nM
JVM-2; JVM-2, 96H incubation, cell viability by ATP, read-out: IC50
  IC50: 139 nM
MAVER-1; Maver1, MAVER-1, 96H incubation, cell viability by ATP, read-out: IC50
  IC50: 50.5 nM
MINO; 96H incubation, cell viability by ATP, read-out: IC50
  IC50: 54.4 nM
REC-1; Rec1, REC-1, 96H incubation, cell viability by ATP, read-out: IC50
  IC50: 53.4 nM
[1]
  apoptosis monitored by Annexin V staining: induces apoptosis
[2]
  cell cycle: induces MCL cell cycle defect
Phospho-H2A.X (S139)
  DNA damage response (Serine 139 phosphorylation of H2A.X): induces DNA damage response
[3]
  CDK4 protein levels: downregulation
  Cyclin D1 protein level: significant downregulation
  RB phosphorylation: downregulation
Primary MCL cells; 20 nM, 50 nM and 100 nM, 96H with CD40L, N=5
  median number of viable primary MCL cells (first experiment): significantly reduced
Primary MCL cells; [6]
  cytotoxicity at 0.02 µM: 30%
  cytotoxicity at 0.05 µM: 46%
  cytotoxicity at 0.1 µM: 53%
[4]
  toxicity for non-tumor cells from the microenvironment: without major toxicity
  toxicity in MCL cells compared to normal cells from the microenvironment: higher toxicity in MCL cells compared to normal cells
Jeko-1 and JVM-2 cells
  interaction effect in combination with Doxorubicin: synergistic effect
  interaction effect in combination with Ibrutinib (BTK inhibitor): synergistic effect
  interaction effect in combination with Venetoclax (Bcl2 inhibitor): synergistic effect
[5]
  toxicity on hematopoietic progenitors: low toxicity
